We go through one compound from patent US12594278B2, “Method for treatment of muscular dystrophy” (CHILDREN'S NATIONAL MEDICAL CENTER, priority 2019, dated 2026).

The structures appear in SMILES notation.

One test concerns mdx mice. To be noted: previously shown; cited from earlier work.
The test system of another test is B6A/J FAPs. As to the kind of experiment: Spontaneous adipogenesis of B6A/J FAPs in culture with batimastat (Oil Red O). The format is cell-based, mouse. The note with it: 10 μM batimastat from day 3 in culture; 40,000 FAPs from 12Mo B6A/J mice; vs untreated. The method, then: To test this, and to independently confirm the benefit of inhibiting adipogenic differentiation of FAPs for dysferlinopathy, a drug was used to inhibit adipogenic differentiation of FAPs. […] To test the ability of batimastat to prevent the spontaneous adipogenesis of B6A/J FAPs, 40,000 FAPs isolated from 12Mo B6A/J mice were treated with 10 μM batimastat starting from 3 days in culture. Using Oil Red O, the extent of adipogenic differentiation of these FAPs after 14 days in culture was quantified in vitro (FIG. 11A).
Isolation and In Vitro Adipogenesis of FAPs. FAPs were isolated from the hindlimb muscles of 6Mo B6A/J mice in a modified protocol from previously published studies. Mice were euthanized and the tibialis anterior, extensor digitorum longus, gastrocnemius, soleus, quadriceps and psoas were immediately dissected. Non-muscle tissue including tendon, nerve and overlying fascia were carefully removed, and muscles were minced finely in a sterile dish and incubated in Collagenase II (2.5 U/ml, ThermoFisher, #17101015) in PBS for 30 min at 37° C. The resulting slurry was washed with sterile PBS before further digest in Collagenase D (1.5 U/ml, Sigma Aldridge, #COLLD-RO) and Dispase II (2.4 U/ml, Sigma Aldridge, #D4693) in PBS for 60 min at 37° C. […]

With `CNC(=O)[C@H](Cc1ccccc1)NC(=O)[C@H](CC(C)C)[C@H](CSc1cccs1)C(=O)NO` [batimastat], in the test with mdx mice, the “fibrosis in mdx mice” value is “reduce fibrosis” and the “muscle function in mdx mice” value was “increase muscle function”. Further, the “spontaneous adipogenesis of the B6A/J FAPs (Oil Red O)” value in the test on B6A/J FAPs is “reduced spontaneous adipogenesis”.
